Patent publication US20230192703A1, “Polycyclic amide derivative as CDK9 inhibitor, preparation method therefor and use thereof” (Suzhou AlphaMa Biotechnology Co., Ltd., priority 2020, published 2023)

Assays:
CDK9 kinase = target: T1, CDK9 kinase (Homo sapiens, UniProt P50750); experiment: Inhibitory effect on the kinase activity of CDK9 in vitro; type: biochemical; settings: CDK9 kinase (Millipore), CTD3 substrate polypeptide, Caliper
T1 construct: purchased Millipore 14-685M
Description: The detection of the inhibitory effect of the compounds of the present disclosure on the kinase activity of CDK9 in vitro was determined by the following method:
Compound preparation: The compound was accurately weighed and dissolved in DMSO (Sigma, D2650) to a concentration of 100 um for later use. The compound was diluted to 5-fold of a desired highest concentration, and diluted 4-fold into 6 concentration gradients, allowing the final concentration of the compound in the reaction system to be 100, 25, 6.25, 1.56, 0.39, 0.098 nM. 5 ul was taken to a 384-well plate (Corning, 4512).
Detection: Data was collected by Caliper.
Calculation: The IC50 value was calculated by Graphpad prism 5.0 software according to the concentration of the compound and the corresponding signal value.

Mv4-11 cells = experiment: Inhibition of the proliferation of Mv4-11 cells (CCK8); type: cell-based; settings: Homo sapiens, MV4-11, 48 h, Mv4-11 cell proliferation, CCK8 OD450
Description: The inhibition effect of the compounds of the present disclosure on the proliferation of Mv4-11 cells (ATCC:CRL-9591TM) in vitro was determined by the following method:
Cell inoculation: Mv4-11 cells with good growing state in logarithmic growth phase were inoculated into a 96-well plate at 20000 cells per well and 50 uL, and cultured at 37° C. and under 5% CO2 condition for 2-4 h. Administration: The compound was diluted with 1640 medium containing 10% FBS and 1% PS: 0.4 uL of the compound with an initial concentration of 1 mM was placed in a dilution plate, each added with 199.6 uL of the above culture medium, and gradiently diluted 4-fold, so that the final concentration in the added cell was 1000, 250, 62.5, 15.625, 3.91, 0.98, 0.24, 0.06 nM. 50 μL of the medium containing the compound was sequentially added, and it was placed in a 37° C., 5% CO2 cell incubator for 48 hours.
Detection: 10 uL CCK8 (Dojindo, CK 04) solution was added to each well, incubated in 37° C. 5% CO2 cell incubator for 2 hours, and then the OD450 value was read by Synegry H1 (BioTek) multimode microplate reader.
Calculation: The IC50 value was calculated using Graphpad prism 5.0 software according to the concentration of the compound and the corresponding signal value.

[1] = test system: phosphorylation of RNA pol II Ser2 in Mv4-11 cells; experiment: Inhibition of phosphorylation of RNA pol II Ser2 in Mv4-11 cells (SDS-PAGE, FIG. 1); type: cell-based; settings: 6 hours, different concentrations
Description: The inhibition effect of the compounds of the present disclosure on the in vitro Mv4-11 cell RNA pol II Ser 2 was determined by the following method:
Cell inoculation: Mv4-11 cells with good growing state in logarithmic growth phase were inoculated into a six-well plate with 2*10^5 cells/well, and cultured overnight at 37° C. and under 5% CO2 condition.
Administration: The compound was diluted with 2 mL of 1640 medium containing 10% FBS and 1% PS. 2 ul of the medium containing the compound was added to the overnight cultured cells, and it was placed in a 37° C., 5% CO2 cell incubator for 6 hours.
Protein extraction and quantification: Cell suspension was collected and centrifuged at 1000 g for 5 min, the cell culturing medium was discarded, and PBS was added for resuspension and centrifugation; it was repeated three times, the residual liquid was sucked dry, 80 uL cell lysate was added per well, it was placed to ice, shaked for 10 min on a shaker, centrifuged at 12000 g for 5 min, and the supernatant, ie, the total protein solution, was collected; the protein concentration was tested by BCA.

T1 sequence (P50750 whole entry): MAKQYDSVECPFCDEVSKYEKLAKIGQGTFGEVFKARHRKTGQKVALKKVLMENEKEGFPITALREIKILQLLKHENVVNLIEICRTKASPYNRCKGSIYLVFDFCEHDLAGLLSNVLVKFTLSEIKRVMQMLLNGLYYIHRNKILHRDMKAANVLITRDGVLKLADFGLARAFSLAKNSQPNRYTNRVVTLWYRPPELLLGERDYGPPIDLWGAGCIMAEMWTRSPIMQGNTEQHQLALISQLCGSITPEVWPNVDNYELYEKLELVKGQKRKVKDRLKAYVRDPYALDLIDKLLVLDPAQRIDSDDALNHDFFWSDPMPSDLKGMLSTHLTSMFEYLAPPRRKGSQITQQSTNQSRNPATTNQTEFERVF
T1 sequence (O60563 whole entry partner): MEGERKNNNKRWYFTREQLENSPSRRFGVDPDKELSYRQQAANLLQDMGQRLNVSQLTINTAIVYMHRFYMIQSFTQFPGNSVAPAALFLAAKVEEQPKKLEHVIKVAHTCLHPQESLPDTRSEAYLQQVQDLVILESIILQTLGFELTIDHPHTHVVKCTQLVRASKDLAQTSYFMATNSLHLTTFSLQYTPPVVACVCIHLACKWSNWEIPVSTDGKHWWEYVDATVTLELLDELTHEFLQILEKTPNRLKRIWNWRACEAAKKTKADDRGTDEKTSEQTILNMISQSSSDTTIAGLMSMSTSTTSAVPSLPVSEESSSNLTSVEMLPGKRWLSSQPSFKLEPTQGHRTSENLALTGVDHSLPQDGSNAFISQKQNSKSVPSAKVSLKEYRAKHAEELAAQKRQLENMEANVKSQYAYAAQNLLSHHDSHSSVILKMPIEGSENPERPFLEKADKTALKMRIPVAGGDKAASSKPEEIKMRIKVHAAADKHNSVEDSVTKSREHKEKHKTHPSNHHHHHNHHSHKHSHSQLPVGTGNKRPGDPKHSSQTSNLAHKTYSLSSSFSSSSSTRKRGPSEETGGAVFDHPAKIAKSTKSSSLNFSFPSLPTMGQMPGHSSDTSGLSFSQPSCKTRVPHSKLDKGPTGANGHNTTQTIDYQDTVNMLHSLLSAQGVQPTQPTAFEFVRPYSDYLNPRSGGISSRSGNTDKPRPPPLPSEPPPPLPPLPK

IC50 (CDK9 kinase) [nM]	IC50 (Mv4-11 cells) [nM]	Compound	inhibitory effect on the phosphorylation of RNA pol II Ser 2 in Mv4-11 cells [1]
3.2	17.5	CC(=O)N1C[C@H]2CC(C(=O)Nc3cc(-c4cc(C#N)n5c4CC(C)(C)C5)c(Cl)cn3)C[C@H]2C1 (single isomer, unassigned) [Compound 7-1]	significant inhibitory effect
3.2	2.8	Cn1ccc([C@@H]2CCC[C@H](C(=O)Nc3cc(-c4cnn5c4CC(C)(C)C5)c(Cl)cn3)C2)n1 (single isomer, unassigned) [Compound 22-1-1]	significant inhibitory effect
2.1	1.6	CC(=O)N[C@@H]1CCC[C@H](C(=O)Nc2cc(-c3cc(C#N)n4c3CC(C)(C)C4)c(Cl)cn2)C1 [Compound 1, (1S,3R)-3-acetamido-N-(5-chloro-4-(5-cyano-2,2-dimethyl-2,3-dihydro-1H-pyrrolizin-7-yl)pyridin-2-yl)cyclohexane-1-carboxamide]	–
2.8	27.6	CC(=O)N[C@@H]1CCC[C@H](C(=O)Nc2cc(-c3cc(C(N)=O)n4c3CC(C)(C)C4)c(Cl)cn2)C1 [Compound 2, 7-(2-((1S,3R)-3-acetylaminocyclohexane-1-carboxamido)-5-chloropyridin-4-yl)-2,2-dimethyl-2,3-dihydro-1H-pyrrolizine-5-carboxamide]	–
2.8	7.6	C[C@H](N)C(=O)N1C[C@H]2CC(C(=O)Nc3cc(-c4cnn5c4CC(C)(C)C5)c(Cl)cn3)C[C@H]2C1 (stereo partly drawn) [Compound 5, (3aR,6aS)-2-(L-alanyl)-N-(5-chloro-4-(5,5-dimethyl-5,6-dihydro-4H-pyrrolo[1,2-b]pyrazol-3-yl)pyridin-2-yl)octahydrocyclopenta[c]pyrrole-5-carboxamide]	–
3.7	5.4	C[C@@H](N)C(=O)N1C[C@H]2CC(C(=O)Nc3cc(-c4cnn5c4CC(C)(C)C5)c(Cl)cn3)C[C@H]2C1 (stereo partly drawn) [Compound 6, (3aR,6aS)-2-(D-alanyl)-N-(5-chloro-4-(5,5-dimethyl-5,6-dihydro-4H-pyrrolo[1,2-b]pyrazol-3-yl)pyridin-2-yl)octahydrocyclopenta[c]pyrrole-5-carboxamide]	–
2.9	26	CC(=O)N[C@@H]1CCC[C@H](C(=O)Nc2cc(-c3cc(C(N)=O)n4c3CC(C)(C)C4)ccn2)C1 [Compound 12]	significant inhibitory effect
10.1	7.9	CC1(C)Cc2c(-c3cc(NC(=O)[C@@H]4C[C@H]5C[C@H](C(N)=O)C[C@H]5C4)ncc3Cl)cc(C(N)=O)n2C1 [Compound 15-1, (2s,3aR,5r,6aS)-N-(4-(5-carbamoyl-2,2-dimethyl-2,3-dihydro-1H-pyrrolizin-7-yl)-5-chloropyridin-2-yl)octahydropentalene-2,5-dicarboxamide]	–
3.7	14.3	CC1(C)Cc2c(-c3cc(NC(=O)[C@H]4C[C@H]5C[C@@H](C(N)=O)C[C@H]5C4)ncc3Cl)cc(C(N)=O)n2C1 [Compound 15-2, (2r,3aR,5s,6aS)-N-(4-(5-carbamoyl-2,2-dimethyl-2,3-dihydro-1H-pyrrolizin-7-yl)-5-chloropyridin-2-yl)octahydropentalene-2,5-dicarboxamide]	–
4.9	36.1	CC(=O)N[C@@H]1CCC[C@H](C(=O)Nc2cc(-c3cc(C(N)=O)c4n3CC(C)(C)C4)c(Cl)cn2)C1 [Compound 17, 5-(2-((1S,3R)-3-acetylaminocyclohexane-1-carboxamido)-5-chloropyridin-4-yl)-2,2-dimethyl-2,3-dihydro-1H-pyrrolizine-7-carboxamide]	–
2.2	3.5	CC(=O)N[C@@H]1CCC[C@H](C(=O)Nc2cc(-c3cc(C#N)c4n3CC(C)(C)C4)c(F)cn2)C1 [Compound 27, (1S,3R)-3-acetamido-N-(4-(7-cyano-2,2-dimethyl-2,3-dihydro-1H-pyrrolizin-5-yl)-5-fluoropyridin-2-yl)cyclohexane-1-carboxamide]	–
6.3	15.3	CC(=O)N[C@@H]1CCC[C@H](C(=O)Nc2cc(-c3cnn4c3CC(C)(C)C4)c(C(F)(F)F)cn2)C1 [Compound 30, (1S,3R)-3-acetamido-N-(4-(5,5-dimethyl-5,6-dihydro-4H-pyrrolo[1,2-b]pyrazol-3-yl)-5-(trifluoromethyl)pyridin-2-yl)cyclohexane-1-carboxamide]	–
4.8	9.2	CC(=O)N[C@@H]1CCC[C@H](C(=O)Nc2cc(-c3cc(C(N)=O)c4n3CC(C)(C)C4)c(F)cn2)C1 [Compound 31, 5-(2-((1S,3R)-3-acetylaminocyclohexane-1-carboxamido)-5-fluoropyridin-4-yl)-2,2-dimethyl-2,3-dihydro-1H-pyrrolizine-7-carboxamide]	–
4.9	2.3	CC(=O)N[C@H]1C[C@@H]2C[C@@H](C(=O)Nc3cc(-c4cc(C(N)=O)n5c4CC(C)(C)C5)c(F)cn3)C[C@@H]2C1 [Compound 34-1, 7-(2-((2r,3aR,5s,6aS)-5-acetylaminooctahydropentalene-2-carboxamido)-5-fluoropyridin-4-yl)-2,2-dimethyl-2,3-dihydro-1H-pyrrolizine-5-carboxamide]	–
